The results in this text go back to patent publication US6635650B2, “Substituted dimeric compounds” (Les Laboratoires Servier, priority 1999, dated 2003).

Structures are written as SMILES.

Consider `CC(=O)NCCc1cccc2ccc(OCCCCCCOc3ccc4cccc(CCNC(C)=O)c4c3)cc12` [Example 17, N-[2-(7-{[6-({8-[2-(Acetylamino)ethyl]-2-naphthyl}oxy)hexyl]oxy}-1-naphthyl)ethyl]acetamide], for which the melting point – broadly, the temperature of the solid-liquid transition – lay within 142 to 144 °C.
